Source: patent publication US20190209572A1, “BIFUNCTIONAL ANTIFUNGAL AGENTS AND METHODS OF TREATING FUNGAL INFECTION” (YALE UNIVERSITY, priority 2016, published 2019)

Columns and labels:
[1] = ELISA assay for antibody recruitment on immobilized chitin; type: binding; conditions: FIG. 9A
Experimental: Free chitin (0.100 g, Alfa Aesar, United Kingdom) was hydrolyzed by adding 10 ml of conc. HCl for 30 min with gentle stirring. An aliquot of the chilin solution(1 mL) was mixed with 9 ml of PBS to the final concentration of 1 mg/mL. This solution was further diluted to 100 μg/mL with PBS and coated overnight at 4° C. in a 96-well Nunc MaxiSorp microtiter plate. Upon completion, the coated plate was blocked with 2% BSA solution at 37° C. for 3 h. Next, compounds and controls at predetermined dilutions made in the 2% BSA blocking solution were added followed by addition of 2 mg/ml anti-DNP biotinylated antibodies diluted 1:100 (Invitrogen, CA). The plate was covered and incubated at 37° C. for 1 h. The plate was washed 3 times with wash solution (0.2% Tween 20 in PBS) and HRP-labeled streptavidin secondary reagent was added at a dilution 1:10000 in 2% BSA. The plate was incubated again at 37° C. for 1 h followed by washing 3 times with wash solution. HRP substrate TMB Ultra solution (Thermo Fischer, IL) was added to the plates and incubated until suitable color development and the reaction was stopped by adding 100 μL of aq. 1N H2SO4. Quantification was performed by measuring absorbance on a plate reader at 450 nm.

Candida albicans = test: Flow cytometry antibody-recruiting assay (anti-DNP antibodies) on C. albicans; type: cell-based
Experimental: Candida albicans cultures were maintained on Sabouraud dextrose agar (SDA) and yeast cell cultures were grown at 30° C. in Sabouraud dextrose broth with shaking at 225 rpm overnight (OD 1.1-1.3). For the assays, 10^5 cells were taken into 50 μL assay medium (5% BSA in PBS 1x) and treated with a fixed concentration of the indicated ARM-F compound from 100x DMSO stocks followed by imminent addition of 50 μL 500x stock solution of anti-DNP-biotine-xx conjugate antibodies in assay medium. Cells were allowed to incubate for 30 min at r.t., then washed twice with 500 μL assay medium followed by addition of 50 μL 500x stock solution of streptavidin-AlexaFluor 647 conjugate and propidium iodide. […] The cells were allowed to incubate for another 30 min, washed with 500 μL assay medium and antibody recruiting to the cell surface was evaluated via flow cytometry by measuring increasing cell counts in the FL-4 channel negative for FL-3.
A flow-cytometry based assay was developed to assess the antibody recruitment ability of candidate ARM-Fs to isolates of C. albicans. We chose this organism for our studies because it is both a known human pathogen, and readily tractable for experimental manipulations.^[13] Ternary complexes formed from ARM-F, fungal cells and anti-DNP antibodies were detected using an anti-DNP secondary antibody conjugated to Alexa Fluor 647 fluorophore. […]

[2] = system: caspofungin-treated C. albicans cells; test: Flow cytometry antibody-recruiting assay on C. albicans grown with caspofungin; type: cell-based, Candida albicans
Experimental: The synergistic experiments with Caspofungin were performed as described above, Save that yeast cell cultures were grown in Sabouraud dextrose broth supplemented with a fixed concentration of Caspofungin acetate from DMSO stock solutions.
Cultures of C. albicans Ca2323 were grown in Sabourad dextrose broth (Hardy Diagnostics, CA) to maintain them in a non-sporulating yeast form (blastopore form). S. cerevisiae YPH499 (Mat type a) were grown in YPD brath (Teknova, CA). Chitin-deficient strain S. cerevisiae YMS348s Δchs 1,2,3 was grown in YPD broth supplemented with 1M sorbitol. The fungal cultures were generally grown overnight at 30° C. for the antibody recruitment and phagocytosis assays. For consistency, O.D. measurements were taken using a single cuvette UltraSpec 10 cell density meter and experiments were performed on cultures with similar density. For experiments involving caspofungin treated C. albicans, the cells were grown overnight in media containing 1.25 ng/ml caspofungin acetate (Merck, PA). For experiments involving α factor induced arrest, α factor pheromone trifluoroacetate salt (Bachem, Switzerland) was added to a fresh S. cerevisiae YPH499 culture to a final concentration of 5 μg/mL followed by incubation for 1 h. Then, the cells were treated repeatedly with α factor pheromone trifluoroacetate salt (5 μg/mL) and incubated for an additional 2 h.
Fungal cells for the antibody recruitment experiments were always grown to 1.0 O.D. for consistency across experiments. The fungal cells were pelleted, washed, counted on the flow cytometer and re-constituted in FACS buffer of PBS containing 5% BSA at a density of 1×10^5 cells/mL. One microliter of suitably diluted ARM compound followed by 1 μL of 1:100 diluted anti-DNP biotinylated mouse monoclonal antibody (2 mg/mL, Invitrogen, CA) was added to 100 μL of fungal cells in FACS buffer. The reaction was mixed well and incubated in a 37° C. incubator for 30 minutes. Post incubation, washing was performed by adding 1 mL of FACS buffer to the reaction and the cells pelleted by centrifugation at 10000x g for 5 minutes. The pelleted cells were then reconstituted in 100 μl of FACS buffer followed by addition of 1 μL of 1:1000 diluted AF647 labeled streptavidin (0.5 mg/mL, BioLegend, CA) and 1 μL of 100 μg/ml propidium iodide (PromoKine, Germany). […] All experiments consisted of two sets of controls: (i) flow controls: unstained cells, propidium iodide stained cells, secondary reagent stained cells; (ii) background controls: compound 9 lacking DNP motifs, and no ARM-F. The cells were analyzed by flow cytometry on an Attune Nxt flow cytometer (Thermo Fischer Scientific) and the raw data further analyzed using FlowJo software (FlowJo LLC, OR).

C. albicans = test: Dual color flow cytometry-based fungal opsono-phagocytosis assay; type: cell-based, Candida albicans
Excerpt: In the physiological state, neutrophils mediate immune clearance of antibody-opsonized fungal cells.^[18], [19] To mimic this mechanism, we developed a functional assay to analyse ARM-F mediated opsonophagocytosis of fungal cells. The assay is based on two color flow cytometry and operates on the principle of differentiating phagocytosed fungal cells (intracellular) from non-phagocytosed cells (extracellular).^[20] […]
The pro-myeloblast cell line HL-60 was obtained from AtCC and cultured in high serum DMEM-F12 growth medium containing 15% FBS, 1 mM sodium pyruvate, 2 mM L-glutamine, 1X non-essential amino acids with antibiotics penicillin (10 U/mL) and streptomycin (10 μg/mL). […] The cells were counted every 24-48 hours on a Roche Innovatis Cedex XS automated cell counter and generally maintained at a density of 1×10^5 cells/mL. […]
Fungal cells for these experiments were always grown to 1.0 OD and the HL-60 cells to approximately 1×10^5 cells/mL for consistency between experiments. The fungal cells were counted by flow cytometry, pelleted and reconstituted in a fixing solution of ice-cold 70% ethanol and incubated for 1 h. […] After the final wash, the fungal cells were counted again on the flow cytometer and re-constituted in FACS buffer of PBS containing 5% BSA at a density of 2×10^6 cells/mL. […]

## O=C(NCCOCCOCCOCCOCCOCCOCCOCCOCCOCCNc1ccc([N+](=O)[O-])cc1[N+](=O)[O-])c1ccc(Nc2nc(Nc3ccc(/C=C/c4ccc(Nc5nc(Nc6ccc(C(=O)NCCOCCOCCOCCOCCOCCOCCOCCOCCOCCNc7ccc([N+](=O)[O-])cc7[N+](=O)[O-])cc6)nc(N(CCO)CCO)n5)cc4S(=O)(=O)O)c(S(=O)(=O)O)c3)nc(N(CCO)CCO)n2)cc1 [compound 8]
[1]
  binding to chitin (in words): binds to fungal chitin in a dose-dependent manner
Candida albicans; dose-dependent recruitment, FIG. 8B
  viability of fungal cells during antibody recruitment: no loss of viability
Candida albicans; no caspofungin, FIG. 8A
  C. albicans cells exhibiting AF647 fluorescence: 35-45%
[2]; 1 μM of 8, 1.25 ng/ml caspofungin, FIG. 9C
  fungal cells that recruited antibodies and were alive: 90%
[2]; caspofungin treated C. albicans, FIG. 9D
  dose eliciting antibody recruitment comparable to the maximum possible in the non-caspofungin model: 10 nM
[2]; dose ranging, caspofungin treated C. albicans, FIG. 9D
  concentration eliciting maximum response in caspofungin treated cells: 1 µM
C. albicans; bell-shaped curve, FIG. 10C
  concentration of maximal phagocytosis response: 10 µM
C. albicans; human neutrophils, anti-DNP antibodies, compared to untreated cells
  phagocytosis of C. albicans cells (in words): drastic increase in number of phagocytosed fungal cells

## CC[C@H](C)C[C@H](C)CCCCCCCCC(=O)N[C@H]1C[C@@H](O)[C@@H](NCCN)NC(=O)[C@@H]2[C@@H](O)CCN2C(=O)[C@H]([C@H](O)CCN)NC(=O)[C@H]([C@H](O)[C@@H](O)c2ccc(O)cc2)NC(=O)[C@@H]2C[C@@H](O)CN2C(=O)[C@H]([C@@H](C)O)NC1=O [Caspofungin, reference compound]
[2]; FIG. 9C
  viability of C. albicans at caspofungin concentrations higher than 1.25 ng/ml: reduced viability
